The source of these data is BindingDB's records for doi:10.1124/jpet.102.046318 (Georgetown University, 2003).

The target of assay [1] is Sodium-dependent dopamine transporter (Rattus norvegicus, UniProt P23977).
Assay [2] has as its target Sodium-dependent serotonin transporter (Rattus norvegicus, UniProt P31652).
Assay [3] concerns the target Norepinephrine transporter (Rattus norvegicus, UniProt Q9JIA2).

Sequence of Sodium-dependent dopamine transporter (P23977 whole entry): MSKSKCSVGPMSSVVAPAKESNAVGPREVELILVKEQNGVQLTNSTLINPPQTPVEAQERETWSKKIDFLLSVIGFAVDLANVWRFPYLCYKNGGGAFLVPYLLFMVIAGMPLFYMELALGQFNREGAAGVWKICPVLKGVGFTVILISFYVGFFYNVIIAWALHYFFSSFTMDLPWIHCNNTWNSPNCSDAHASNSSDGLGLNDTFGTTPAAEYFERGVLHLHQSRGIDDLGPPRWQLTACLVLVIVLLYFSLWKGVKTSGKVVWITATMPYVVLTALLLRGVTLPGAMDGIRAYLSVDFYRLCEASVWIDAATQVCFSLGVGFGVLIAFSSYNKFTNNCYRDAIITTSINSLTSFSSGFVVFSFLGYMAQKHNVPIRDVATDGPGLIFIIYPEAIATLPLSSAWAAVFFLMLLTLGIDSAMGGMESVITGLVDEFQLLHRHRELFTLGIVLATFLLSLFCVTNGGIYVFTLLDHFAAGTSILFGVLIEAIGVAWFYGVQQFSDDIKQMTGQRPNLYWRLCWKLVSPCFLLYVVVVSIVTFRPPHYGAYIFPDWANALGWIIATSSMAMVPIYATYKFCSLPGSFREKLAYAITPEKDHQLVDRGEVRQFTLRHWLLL
Sequence of Sodium-dependent serotonin transporter (P31652 whole entry): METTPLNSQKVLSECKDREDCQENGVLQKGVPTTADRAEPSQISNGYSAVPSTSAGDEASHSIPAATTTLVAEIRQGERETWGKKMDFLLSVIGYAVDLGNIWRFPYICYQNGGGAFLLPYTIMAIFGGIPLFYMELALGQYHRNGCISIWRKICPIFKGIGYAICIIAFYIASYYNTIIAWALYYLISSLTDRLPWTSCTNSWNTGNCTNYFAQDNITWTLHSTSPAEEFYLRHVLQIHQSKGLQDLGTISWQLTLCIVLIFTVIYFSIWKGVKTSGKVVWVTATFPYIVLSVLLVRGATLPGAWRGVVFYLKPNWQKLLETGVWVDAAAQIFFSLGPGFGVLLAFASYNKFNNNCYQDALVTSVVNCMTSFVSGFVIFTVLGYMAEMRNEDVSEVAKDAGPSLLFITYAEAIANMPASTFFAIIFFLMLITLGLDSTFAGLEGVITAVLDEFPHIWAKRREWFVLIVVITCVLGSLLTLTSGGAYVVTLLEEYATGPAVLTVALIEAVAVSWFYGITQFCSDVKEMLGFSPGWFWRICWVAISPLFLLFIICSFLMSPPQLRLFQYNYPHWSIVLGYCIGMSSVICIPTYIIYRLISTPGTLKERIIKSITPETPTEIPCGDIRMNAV

In the case of `CN1CCC(c2ccc(Cl)cc2)[C@H](C(=O)O)C1` (stereo not given in full) [CAS_8268], the Ki (commonly a measure of affinity in units of concentration, obtained from inhibition or displacement) was 276 nM in assay [1], 5900 nM in assay [2] and 90 nM in assay [3].

On to `CN1CCC(c2ccc(Cl)cc2)[C@@H](C(=O)O)C1` (stereo partly drawn) [cis-CPCA, -], for which the Ki worked out at 67 nM in assay [1] and 98 nM in assay [3].
